# From patent US20140096445A1, “METHOD OF CULTIVATION IN WATER DEFICIT CONDITIONS” (SYNGENTA PARTICIPATIONS AG, priority 2011, published 2014)
# Marks after values point to notes of the source that are not given here.
# Columns and labels:
# Type in all cases: in vivo
# corn [1] = assay: Greenhouse sub-surface chemigation, yield and root architecture under deficit water, Examples 20-23; settings: for Yield (% difference from UTC) / Relative number of fine roots (% difference from UTC): sub-surface chemigation at V3/V4, maximum labeled rates, 50% plant-available water; for Relative number of fine roots (% difference from UTC): within 2 weeks of harvest; for Yield compared with the control, statistical statement: sub-surface chemigation, abiotic stress, P values <0.001 at the 95th percentile confidence interval
# Excerpt: In this experiment, standardized growth conditions were applied across all corn treatments including: soil-water availability, soil texture and composition, soil chemical and physical properties, meteorological and environmental parameters, and plant nutrition in a greenhouse. No indication of plant disease or pest damage was observed over the course of the study and no pest management program was necessary. A homogeneous sand-organic matter soil mixture (0.18% organic matter) was used as the growth medium in 55-gal containers. These containers were used as a weighing lysimeter, where daily changes in system weight were used to calculate plant transpiration. Four corn plants were grown in each 55-gal container. Three 55-gal containers (12 plants total) made up each treatment. All irrigation and chemical treatments were applied via sub-surface irrigation. Chemical treatments consisted of: azoxystrobin (Quadris), paclobutrazol (Trimmit), trinexapac-ethyl (Moddus), and propiconazole (Tilt) at maximum labeled rates.
# Corn plants were grown from seed and transplanted in the 55-gal drums approximately 14 days after planting. Uniform adequate irrigation was applied up to growth stage V3/V4 to ensure plant establishment. Chemical treatment applications were applied at growth stage V3/V4 via sub-surface chemigation. At stage V3/V4, irrigation was decreased to replicate deficit water conditions across all treatments for the remainder of the study period. Irrigation was managed daily to maintain 50% plant-available water. Visual signs of abiotic plant stress were observed approximately 30 days after chemical application. All corn plants were grown to yield and cobs were harvested when kernels were uniformly dry (15% moisture content). Root architecture, specifically relative number of fine roots, was measured at within 2 weeks of harvest using a digital imaging technique. Fine roots are related to water uptake productivity, which is directly tied to the ability of the plant to access soil-water under stress.
# corn [2] = assay: SDI chemigation field study under dryland/rainfed conditions, Examples 15-16; settings: 261 gai/ha, 0% irrigated rainfed/dryland
# corn [3] = assay: Lateral-move sprinkler irrigation field study, 113 day maturity corn hybrid, Examples 11-12; settings: 261 gai/ha, 60% irrigated deficit
# corn [4] = assay: SDI split plot field study, 115 day maturity corn hybrid, deficit vs fully irrigated, Example 3; settings: 261 gai/ha, 50% irrigated deficit
# soybean = assay: Sprinkler irrigation field study on soybean yield and WUE, Table 14 (treatments 31-32)
# corn [5] = assay: Lateral-move sprinkler irrigation field study, 112 day maturity corn hybrid, Examples 24-25; settings: 250 gai/ha, 60% irrigated deficit
# Protocol: Testing Procedure: A sprinkler irrigation field study was conducted on a deep silt loam soil using a 112 day maturity corn hybrid. This trial was conducted to quantify the impact of azoxystrobin and trinexapac-ethyl on grain yield, and water productivity of corn under limited (deficit) and fully-irrigated settings. The study utilized a lateral-move sprinkler irrigation (LMS) system. The study was replicated three times in an […]. Each main plot was approximately 185 sq. meters. Irrigation control panels, chemical injection pumps, and filters were housed at the irrigation well house to manage irrigation and chemigation events.
# Soil water status was monitored throughout the growing season using soil moisture sensors. Corn seed was planted with a precision planter at a depth of 2 inches and rows spaced at 30 inches. The planting population was 30,000 seeds per acre. Testing parameters, and irrigation levels were conducted according to the Kansas State University experimental procedure [see e.g., (1) Lamm, F. R., A. J. Schlegel, and G. A. Clark. 2003. Development of a Best Management Practice for Nitrogen Fertigation of Corn Using SDI. Appl. Engr in Agric. and (2) Lamm, F. R., H. L. Manges, L. R. Stone, A. H. Khan, and D. H. Rogers. 1995. Water requirement of subsurface drip-irrigated corn in northwest Kansas. Trans. ASAE, 38(2):441-448.]. Moisture levels, irrigation levels, evapotranspiration, and plant health were measured throughout the growing season. Climatic variables were measured (air temperature, rainfall, solar and net radiation, relative humidity, rainfall, wind speed and direction) throughout the season. Irrigation for the fully irrigated treatments was scheduled according to need by a climatic water budget using calculated evapotranspiration as a withdrawal and with rainfall and irrigation as deposits. Irrigation amounts for each event for the fully irrigated plots were generally 0.96 inches for each event. The deficit irrigation treatments were scheduled at approximately 60% of the fully irrigated plots. Volumetric soil water content was measured in one-foot increments to a depth of 8 ft on an approximately weekly basis throughout the crop season to determine total water use. Crop water use was calculated as the sum of irrigation, precipitation and changes in soil water between the initial and final soil water sampling dates. Water productivity (WUE) was calculated as the crop yield divided by the seasonal water use (Water Productivity (WP)=Yield/ETc). […] Crop yield from each replication was recorded after harvest and adjusted to 15% moisture content. Corn yield components of crop grain yield, plants/area, ears/plant, and kernel weight were measured by hand harvesting a representative sample.
# [6] = Azoxy 150 gai/ha foliar, 2 applications, alone or + Acibenzolar-S-methyl 10 gai/ha, 60% irrigated deficit
smiles,measurement,setting,value
"CO/C=C(/C(=O)OC)c1ccccc1Oc1cc(Oc2ccccc2C#N)ncn1 [Azoxystrobin, azoxystrobin]",Yield (% difference from UTC),corn [1],12.5† %
same,Relative number of fine roots (% difference from UTC),corn [1],37.3† %
same,"Yield compared with the control, statistical statement",corn [1],statistically different from the control
same,Yield,corn [2]; SDI chemigated (V6 & R1),166.2 Bu./acre
same,Azoxystrobin % CWUE Increase over Untr./0% irr.,corn [2]; SDI chemigated,+142% incr over
same,Azoxystrobin % Yield Increase over Untr./0% irr.,corn [2]; SDI chemigated,+9.6% incr over
same,CWUE (crop water use efficiency),corn [2]; SDI chemigated,1.125 Bu./inch
same,Yield,corn [2]; foliar applied (V6 & R1),161.8 Bu./acre
same,Azoxystrobin % CWUE Increase over Untr./0% irr.,corn [2]; foliar applied,+108% incr over
same,Azoxystrobin % Yield Increase over Untr./0% irr.,corn [2]; foliar applied,+6.7% incr over
same,CWUE (crop water use efficiency),corn [2]; foliar applied,0.965 Bu./inch
same,Azoxystrobin % IWUE Increase over Untr./60% irr.,corn [3]; chemigated,+11% over
same,Azoxystrobin % Yield Increase over Untr./60% irr.,corn [3]; chemigated,+5% over
same,IWUE (water productivity),corn [3]; chemigated,515 lbs/acre inch
same,Yield,corn [3]; foliar applied (V6 & R1),239 Bu./acre
same,Azoxystrobin % IWUE Increase over Untr./60% irr.,corn [3]; foliar applied,+16% over
same,Azoxystrobin % Yield Increase over Untr./60% irr.,corn [3]; foliar applied,+7% over
same,IWUE (water productivity),corn [3]; foliar applied,540 lbs/acre inch
same,Yield,corn [3]; sprinkler chemigated (V6 & R1),236 Bu./acre
same,Yield,corn [4]; foliar twice (V8 & V8+14da.),250 Bu./acre
same,Azoxystrobin % IWUE Increase over Untr./50% Irr.,corn [4]; foliar,+3% incr. over
same,Azoxystrobin % IWUE Increase over Untr./100% Irr.,corn [4]; foliar,+7% incr. over
same,Azoxystrobin % Yield Increase over Untr./50% Irr.,corn [4]; foliar,+3% incr. over
same,Azoxystrobin % Yield Increase over Untr./100% Irr.,corn [4]; foliar,+0% incr. over
same,IWUE (water productivity),corn [4]; foliar,494 lbs./acre in.
same,% WUE Increase over the 100% irrigated Control,soybean; [6],11% Increase
same,Treatment % Yield Increase over 60% Untreated,soybean; [6],+6% Incr.
same,Treatment % Yield Increase over 100% Untreated,soybean; [6],+11% Incr.
same,WUE (water productivity),soybean; [6],4.1 bushels/acre-inch
same,Yield,soybean; [6],72 Bu./acre
same,"Yield compared with the untreated, in words",soybean; Azoxystrobin: foliar (2 applications) at 60% & 100% irrigated,significant differences in yield
same,"WUE differences, in words",soybean; water deficit regime,Good WUE differences
"CCOC(=O)C1CC(=O)C(=C(O)C2CC2)C(=O)C1 (stereo not drawn) [TXP, trinexapac-ethyl]",Yield (% difference from UTC),corn [1],15.6† %
same,Relative number of fine roots (% difference from UTC),corn [1],34.3† %
same,"Yield compared with the control, statistical statement",corn [1],statistically different from the control
same,% IWUE Increase over Untr./60% irr.,corn [5],+5% over
same,% Yield Increase over Untr./60% irr.,corn [5],+3.5% over
same,IWUE (water productivity),corn [5],484 lbs/acre inch
same,Yield,corn [5],209 Bu./acre
